# Data: paper PMC6851324, “Design and development of stapled transmembrane peptides that disrupt the activity of G-protein–coupled receptor oligomers” (The Journal of Biological Chemistry, 2019)
# Read-outs that look alike come from different tables or passages of the source. Where a SMILES comes first, the peptide text is derived from it. Bridges are numbered along the chain shown (N, C = ends). Where no end group is shown, it is not given here. [ ]: non-standard residue; d: D form. S5 = C=CCCC[C@](C)(N)C(=O)O; Nle = CCCC[C@H](N)C(=O)O
# Tests used:
# Stability in mouse serum = format: in vitro ADME; conditions: 11.1 μM peptide, fresh nonsterile mouse serum (200 μl serum + 25 μl peptide solution, pH 7.5 buffer with 10% DMSO), 37 °C, quench 15% TCA in acetonitrile, HPLC, n = 3; read-out: Half-life (hours), mouse serum (converted)
# Procedure: (§1) Figure 4. Biophysical analysis of stapled peptides. A, amino acid sequence alignment of the targeted TM regions and disrupting peptides. Cys residues are in the reduced state. Blue bridges indicate the stapled amino acid residues. […] Yields, purity, and MALDI-TOF data are shown for the stapled peptides and negative control. B, CD analysis of 30–50 μM peptides at 20 °C. For proteolytic stability studies, the peptide solution (55.5 μM for trypsin and chymotrypsin and 11.1 μM for serum) was incubated in the presence of 0.55 μg/ml trypsin from porcine pancreas (E), α-chymotrypsin (F), or mouse serum (G) at 37 °C for the indicated times (indicated on the x axis). Data are mean ± S.E. (error bars) (n = 3) percentage of intact peptide normalized to t = 0. Proteolytic half-lives and putative cleavage sites (predicted using the Expasy bioinformatics server's model with a 50% probability of cleavage) are indicated at the bottom of each panel. Positive correlation between helicity and half-life in trypsin/chymotrypsin (C) or serum (D) was determined by two-tailed Pearson's correlation test. TEXT PRINTED IN THE PICTURE: (B) TM7-TAT: Ellipticity (%): 3.4 | (B) TM6-TAT: Ellipticity (%): 18.3 | (B) TM5-TAT: Ellipticity (%): 20.9 | (B) 8: Ellipticity (%): 58.3 | (B) 9: Ellipticity (%): 46.4 | (B) 10: Ellipticity (%): 36.8 | (B) 11: Ellipticity (%): 46 | (E) TM7-TAT: Half-life (min): 21; #Cleavage sites: 8 | (E) TM6-TAT: Half-life (min): 40; #Cleavage sites: 7 | (E) TM5-TAT: Half-life (min): 33; #Cleavage sites: 8 | (E) 8: Half-life (min): 307; #Cleavage sites: 0 | (E) 9: Half-life (min): 178; #Cleavage sites: 0 | (E) 10: Half-life (min): 75; #Cleavage sites: 6 | (E) 11: Half-life (min): 84; #Cleavage sites: 0 | (F) TM7-TAT: Half-life (min): 22; #Cleavage sites: 6 | (F) TM6-TAT: Half-life (min): 32; #Cleavage sites: 7 | (F) TM5-TAT: Half-life (min): 28; #Cleavage sites: 7 | (F) 8: Half-life (min): 425; #Cleavage sites: 4 | (F) 9: Half-life (min): 198; #Cleavage sites: 3 | (F) 10: Half-life (min): 63; #Cleavage sites: 2 | (F) 11: Half-life (min): 79; #Cleavage sites: 4 | (G) TM7-TAT: Half-life (hours): 0.46 | (G) TM6-TAT: Half-life (hours): 0.55 | (G) TM5-TAT: Half-life (hours): 0.81 | (G) 8: Half-life (hours): ≥18 | (G) 9: Half-life (hours): 14.7 | (G) 10: Half-life (hours): 11.7 | (G) 11: Half-life (hours): 5.3 DOUBTS OF THE COPYIST ABOUT THIS PICTURE: Panel A table (Yield, Rt, Purity, [M+H+] calc., [M+H+] Peak Found for 7-11) left out as synthesis and mass-spectrum characterisation data; uncertain whether [M+H+] calc. should count as a molecular weight
# (§2) Dose–response curves were fitted using a four-parameter logistic nonlinear regression mode. Peptide stability data were fitted using a nonlinear regression mode for dissociation kinetics. All statistical tests, curve fitting, and graphing were performed using GraphPad Prism 8 (GraphPad Software, La Jolla, CA).
# To 200 μl of fresh nonsterile mouse serum was added 25 μl of peptide solution (100 μM, dissolved in ammonium bicarbonate buffer, pH 7.5, containing 10% DMSO), and the mixture was incubated at 37 °C. At the specified time, an aliquot of incubation mixture was withdrawn and quenched by the addition of an equal volume of 15% TCA in acetonitrile to precipitate out serum proteins over ice for 30 min. The mixture was then centrifuged at 13,500 rpm for 10 min, and the supernatant was collected and analyzed by HPLC in a similar manner as described previously. The experiment was repeated twice on different days.
# [1] = biological target: T1, trypsin from porcine pancreas (Sus scrofa, UniProt P00761); experiment: Proteolytic stability against trypsin; format: in vitro ADME; conditions: pig
# T1 construct: purchased Sigma; host or cells: porcine pancreas
# T1 sequence (P00761 9-231): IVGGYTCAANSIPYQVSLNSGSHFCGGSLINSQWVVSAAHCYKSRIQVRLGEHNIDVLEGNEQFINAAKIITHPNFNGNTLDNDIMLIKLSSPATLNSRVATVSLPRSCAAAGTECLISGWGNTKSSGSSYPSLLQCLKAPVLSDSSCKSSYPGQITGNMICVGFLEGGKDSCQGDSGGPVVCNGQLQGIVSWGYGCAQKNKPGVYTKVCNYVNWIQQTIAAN
# Procedure: as §1, §2
# To 100 μl of peptide solution (100 μM, dissolved in ammonium bicarbonate buffer, pH 7.5), 60 μl of ammonium bicarbonate buffer (pH 7.5) was added, together with 20 μl of temperature-equilibrated (37 ± 1 °C) trypsin (5 μg/ml) from porcine pancreas (Sigma, 13,000–20,000 BAEE units/mg of protein). Peptides were incubated for 15, 30, 60, 120, 240, and 480 min, and then MeOH (HPLC Grade) + 0.05% TFA was added. The samples were then centrifuged (15,000 rpm), and the supernatant was analyzed, using Fmoc-Gly (10 μl, 0.2 mM) as an internal standard. The digestion at each time point was repeated three times to give the average values along with S.D. The amount of intact peptide that remained in the mixture was quantified by RP-HPLC. The experiment was repeated twice on different days.
# CD helicity measurements = format: physicochemical; conditions: 30–50 μM peptide in MilliQ water, 20 °C, 1-mm path length, three scans 195–260 nm, % helicity from molar ellipticity at 222 nm
# Procedure: Figure 4. Biophysical analysis of stapled peptides. A, amino acid sequence alignment of the targeted TM regions and disrupting peptides. Cys residues are in the reduced state. Blue bridges indicate the stapled amino acid residues. […] Yields, purity, and MALDI-TOF data are shown for the stapled peptides and negative control. B, CD analysis of 30–50 μM peptides at 20 °C. For proteolytic stability studies, the peptide solution (55.5 μM for trypsin and chymotrypsin and 11.1 μM for serum) was incubated in the presence of 0.55 μg/ml trypsin from porcine pancreas (E), α-chymotrypsin (F), or mouse serum (G) at 37 °C for the indicated times (indicated on the x axis). Data are mean ± S.E. (error bars) (n = 3) percentage of intact peptide normalized to t = 0. Proteolytic half-lives and putative cleavage sites (predicted using the Expasy bioinformatics server's model with a 50% probability of cleavage) are indicated at the bottom of each panel. Positive correlation between helicity and half-life in trypsin/chymotrypsin (C) or serum (D) was determined by two-tailed Pearson's correlation test. […]
# CD spectra were recorded on a Jasco J-810 with a total of three scans from 195 to 260 nm in 0.5-nm increments. […]
# The Jasco J-810 generates the raw output in ellipticity and is measured in millidegrees. […] Once the precise concentration was confirmed, the molar ellipticity [θ] was calculated as follows. […]
# Where c is the sample concentration (μM), l is the path length (mm), n is the number of peptide bonds (calculated as amino acid residues − 1), and θobs is the observed ellipticity (millidegrees). […]
# [2] = isolated enzyme trypsin, 55.5 μM peptide, 0.55 μg/ml trypsin from porcine pancreas, ammonium bicarbonate buffer pH 7.5, 37 °C, 15–480 min, intact peptide by RP-HPLC (Fmoc-Gly internal standard), n = 3, nonlinear regression fit, read-out: Half-life (min), trypsin
Compound,half-life at 11.1 μM (Stability in mouse serum) [h],"half-life at 55.5 μM [1, 2] [min]",Ellipticity (%) (helicity by CD) (CD helicity measurements; listed as CB1 TM5-TAT),"half-life at 55.5 μM ([1]; trypsin from porcine pancreas, pH 7.5, trypsin 0.55 μg/ml, 37 °C, pH 7.5, approximate value of running text, read-out: half-life in trypsin as stated in text (converted)) [min]","half-life at 55.5 μM ([1]; 55.5 μM peptide, 0.55 μg/ml trypsin from porcine pancreas, ammonium bicarbonate buffer pH 7.5, 37 °C, 15–480 min, intact peptide by RP-HPLC (Fmoc-Gly internal standard), n = 3, nonlinear regression fit, read-out: Half-life (min), trypsin) [min]",Ellipticity (%) (helicity by CD) (CD helicity measurements),"half-life at 55.5 μM ([1]; isolated enzyme trypsin, pH 7.5, Half-life (min), trypsin) [min]"
"ETYLMFWIGVTSVLLLFIVYAYMYILWGRKKRRQRRR [TM5-TAT, reference compound]",0.81,33,< 20,,,,
CCCC[C@H](NC(=O)[C@]1(C)CCC/C=C\CCC[C@](C)(NC(=O)[C@H](Cc2ccccc2)NC(=O)[C@H](CC(C)C)NC(=O)[C@H](CC(C)C)NC(=O)[C@H](CC(C)C)NC(=O)[C@@H](N)C(C)C)C(=O)N[C@@H](C(C)C)C(=O)N[C@@H](Cc2ccc(O)cc2)C(=O)N[C@@H](C)C(=O)N1)C(=O)N[C@@H](Cc1ccc(O)cc1)C(=O)N[C@H](C(=O)N[C@@H](CC(C)C)C(=O)N[C@@H](Cc1c[nH]c2ccccc12)C(N)=O)[C@@H](C)CC [Peptide 8] (H-VLLLF[S5]VYA[S5][Nle]YILW-NH2; staple (Z) 6-10),≥ 18,,,~300,307,58.3,
"GRKKRRQRRRKTLVLILVVLIICWGPLLAIMVY [TM6-TAT, reference compound]",0.55,40,,,,< 20,
C=CCCC[C@](C)(NC(=O)[C@H](Cc1ccc(O)cc1)NC(=O)[C@@H](N)C(C)C)C(=O)N[C@@H](Cc1ccc(O)cc1)C(=O)N[C@@H](CCCC)C(=O)N[C@@](C)(CCCC=C)C(=O)N[C@H](C(=O)N[C@@H](CC(C)C)C(=O)N[C@@H](Cc1c[nH]c2ccccc12)C(N)=O)[C@@H](C)CC [Peptide 11] (H-VY[S5]Y[Nle][S5]ILW-NH2),,,,,,46.0,84
